Test results reported in US9365572B2, “PI3K and/or mTOR inhibitor” (XUANZHU PHARMA CO., LTD., priority 2012, dated 2016).
Structures can show the parent of a compound that is named as a salt.

How the values were obtained:
PI3Kα = PI3Kα (Homo sapiens (Human), UniProt P42336); assay: PI3Kα enzymatic assay; type: biochemical; settings: read-out: In vitro enzymatic activity (IC50) PI3Kα
Description: (§1) Assay 1-2: In Vitro Enzymatic Inhibitory Activity of the Present Compound
(§2) • 1.1 1-fold kinase buffer: 50 mM HEPES, pH 7.5, 10 mM MgCl2, 1 mM EGTA, 3 mM MnCl2, 0.01% Tween-20, 2 mM DTT; • 1.2 4-fold kinase solution: mTOR kinase was added to 1-fold kinase buffer to form 4-fold kinase solution with a final concentration of 2.5 nM; • 1.3 2-fold substrate and ATP solution: the substrate 4EBP1 and ATP were added to 1-fold kinase buffer to form 2-fold substrate solution with final concentration of 50 nM of 4EBP1 and 10.8 μM of ATP; • 1.4 4-fold test substance solutions: 100-fold test substance solutions in different gradient concentrations were formulated with 100% DMSO, and diluted by 25 folds with 1-fold kinase buffer to form 4-fold test substance solutions in different gradient concentrations. • 1.5 Preparation of detection solution: a detection solution containing 2-fold final concentrations of EDTA and 4EBP1 phosphorylated antibody was formulated, wherein the final concentration for EDTA was 8 mM, and the final concentration for the 4EBP phosphorylated antibody was 2 nM. 2. Procedure • 2.1 To each well of a 384-well plate was added 2.5 μL of the 4-fold test substance solutions in gradient concentrations. The replication was made. • 2.2 To each well was added 2.5 μL of 4-fold kinase solution, and then the plate was incubated for 10 mins; • 2.3 Then to each well was added 5 μL/of 2-fold substrate and ATP solution, and then the plate was incubated at room temperature for 1 hour; • 2.4 Finally, 10 μL of the detection solution was added to terminate the reaction. After 60 mins, the data Lance signal ([…]) was read from Envision. 3 Data treatment Inhibition rate (%)=[…] • wherein: • maximum refers to the reading at the DMSO control well. • minimum refers to the reading at the control well without kinase, • The data was input into Graphpad Prism 5.0 to plot and obtain the curve and IC50 value. PI3Kα Enzymatic Assay 1. […] After 15 mins, the data Lance signal ([…]) was read from Envision. 3 Data treatment Inhibition rate (%)=100−(sample value−minimum)/(maximum−minimum)×100 • wherein: • maximum refers to the reading at the control well without kinase, • minimum refers to the reading at the DMSO control well, • The data was input into Graphpad Prism 5.0 to plot and obtain the curve and IC50 value. […]

mTOR = mTOR (Homo sapiens (Human), UniProt P42345); assay: mTOR enzymatic assay; type: biochemical; settings: read-out: In vitro enzymatic activity (IC50) mTOR
Description: as §1
1. Preparation of Agents:
as §2

SKOV-3 = assay: In vitro cytological inhibitory activity (XTT); type: cell-based; settings: Homo sapiens, SK-OV-3, 72 hrs
Description: SKOV-3: Human ovarian cancer cell line;
(§3) 1. Preparation of agents and compounds:
(§4) • 1.1 Preparation of phosphoric acid buffering solution (PBS): 8 g NaCl, 0.2 g KCl, 1.44 g Na2HPO4 and 0.24 g KH2PO4 were weighed and added to 800 mL ultrapure water. The mixture was adjusted to pH=7.4, and ultrapure water was added to the metered volume of IL. Then the autoclaving was conducted for 20 mins. • 1.2 Preparation of XTT detection working solution: 100 mg (2,3-Bis-(2-methoxy-4-nitro-5-sulfophenyl)-2H-tetrazolium-5-carboxanilide); 2,3-bis(2-methoxy-4-nitro-5-sulfophenyl)-5-[(phenylamino)carbonyl]-2H-tetrazolium hydroxide (XTT) powder was weighed, and dissolved under protection from light 300 mL of phenol red-free and serum-free RPMI1640 culture, which had been warmed up to 50° C. The resulting mixture was filtered, packaged and used immediately or in one week. The complete process was conducted under protection from light. • 1.3 Preparation of the test compound • Preparation of the stock solution of the test compound: The test compound powder was dissolved in DMSO in a concentration of 10 mM. • Preparation of the gradiently diluted solution of the test compound: 10 mM of the stock solution of the test compound was successively and gradiently diluted with DMSO by 4 folds for 10 concentrations. […]

PC-3 = assay: In vitro cytological inhibitory activity (XTT); type: cell-based; settings: Homo sapiens, 72 hrs
Description: PC-3: Human prostatic carcinoma cell line;
as §3, §4

[1] = In vivo pharmacokinetics assay in rat; settings: male, SD, plasma, rats; for Vd: read-out: Vss
From the text: Test animals: male SD rats, weighing 190-260 g. Intravenous bolus injection (I.V.) and gavage (P.O.) administrations were each applied to three rats.
Compound 5, for both I.V and P.O administrations, was solubilized with a solution of 30% DMF+50% PEG400+20%(0.9% sodium chloride injection)(the pH being adjusted with a suitable amount of an aqueous hydrochloric acid solution (2 mol/L)).
Compound 6, for both I.V and P.O administrations, was solubilized with a solution of 30% DMF+30% PEG400+5%0.1 mol/lhydrochloric acid+[…] normal saline.
Compound 30 for I.V administration was solubilized with a solution of 30% DMF+50% PEG400+20% normal saline; Compound 30 for P.O administration was solubilized with a solution of 5% DMSO+30% polyoxyethylene castor oil+65% normal saline.
Compound 30 hydrochloride for I.V administration was solubilized with a solution of 30% DMF+50% PEG400+20% sterile water for injection.
I.V blood sampling time point: 0.083 h, 0.25 h, 0.5 h, 1 h, 2 h, 4 h, 6 h, 8 h and 24 h after the administration, P.O blood sampling time point: 0.17 h, 0.5 h, 1 h, 2 h, 4 h, 6 h, 8 h and 24 h after the administration.
About 100 μl of whole blood was taken at each time point, anticoagulated with heparin sodium, and centrifugated at 8,000 rpm in a high-speed centrifuge for 6 minutes to separate plasma, and the resulting plasma was frozen at −80° C. in a refrigerator.
The plasma sample was treated with a liquid-liquid extraction. 20 μL of plasma was taken. A solution of BEZ-235 (Novartis, Phase II) in tertbutylmethylether (600 μL, 10 ng/mL) was added as internal standard. The mixture was rotated vertically at 1500 rpm for 10 mins and then centrifugated at 12000 rpm for 5 mins. 400 μL of the supernate was taken and dried under nitrogen. The dried substance was redissolved in 200 μL methanol:water (7:3, V/V) for LC-MS/MS analysis.
Calculation Absolute bioavailability F%=[AUC]last (P.O)*Dose(I.V)/[AUC]last (I.V)*Dose(P.O)

U87MG = assay: In vitro cytological inhibitory activity (XTT); type: cell-based; settings: Homo sapiens, U-87 MG, 72 hrs
Description: U87MG: Human brain astrocytoblast cell line;
as §3, §4

A549 = assay: In vitro cytological inhibitory activity (XTT); type: cell-based; settings: Homo sapiens, 72 hrs
Description: A549: Human lung cancer cell line;
as §3, §4

Chain of PI3Kα (P42336 whole entry): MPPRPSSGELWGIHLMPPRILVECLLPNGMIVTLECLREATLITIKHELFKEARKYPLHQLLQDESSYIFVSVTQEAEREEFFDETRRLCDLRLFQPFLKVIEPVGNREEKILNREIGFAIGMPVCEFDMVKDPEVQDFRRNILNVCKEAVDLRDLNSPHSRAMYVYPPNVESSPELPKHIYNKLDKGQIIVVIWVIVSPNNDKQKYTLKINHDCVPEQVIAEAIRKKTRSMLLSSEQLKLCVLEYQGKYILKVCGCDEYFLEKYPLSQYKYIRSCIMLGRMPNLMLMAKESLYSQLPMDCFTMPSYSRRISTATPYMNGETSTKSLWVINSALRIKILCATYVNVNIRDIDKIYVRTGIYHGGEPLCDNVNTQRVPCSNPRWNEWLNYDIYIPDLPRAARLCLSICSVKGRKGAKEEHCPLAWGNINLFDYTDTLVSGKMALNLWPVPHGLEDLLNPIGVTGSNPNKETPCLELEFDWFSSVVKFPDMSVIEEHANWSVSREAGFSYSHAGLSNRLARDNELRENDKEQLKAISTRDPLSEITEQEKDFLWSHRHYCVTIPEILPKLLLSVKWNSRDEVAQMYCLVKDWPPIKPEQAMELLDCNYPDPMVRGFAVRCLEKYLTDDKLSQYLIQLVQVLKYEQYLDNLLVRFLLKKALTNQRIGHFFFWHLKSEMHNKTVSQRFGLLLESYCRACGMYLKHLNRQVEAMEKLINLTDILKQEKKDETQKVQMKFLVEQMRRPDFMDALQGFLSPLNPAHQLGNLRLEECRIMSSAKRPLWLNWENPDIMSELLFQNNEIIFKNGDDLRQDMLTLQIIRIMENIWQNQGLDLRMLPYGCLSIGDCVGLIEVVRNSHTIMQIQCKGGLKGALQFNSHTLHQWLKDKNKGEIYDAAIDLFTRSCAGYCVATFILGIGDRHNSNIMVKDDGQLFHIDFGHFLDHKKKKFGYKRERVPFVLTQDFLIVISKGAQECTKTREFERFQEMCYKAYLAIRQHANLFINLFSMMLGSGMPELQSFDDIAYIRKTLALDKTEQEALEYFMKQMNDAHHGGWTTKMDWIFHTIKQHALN
Chain of PI3Kα (P27986 whole entry partner): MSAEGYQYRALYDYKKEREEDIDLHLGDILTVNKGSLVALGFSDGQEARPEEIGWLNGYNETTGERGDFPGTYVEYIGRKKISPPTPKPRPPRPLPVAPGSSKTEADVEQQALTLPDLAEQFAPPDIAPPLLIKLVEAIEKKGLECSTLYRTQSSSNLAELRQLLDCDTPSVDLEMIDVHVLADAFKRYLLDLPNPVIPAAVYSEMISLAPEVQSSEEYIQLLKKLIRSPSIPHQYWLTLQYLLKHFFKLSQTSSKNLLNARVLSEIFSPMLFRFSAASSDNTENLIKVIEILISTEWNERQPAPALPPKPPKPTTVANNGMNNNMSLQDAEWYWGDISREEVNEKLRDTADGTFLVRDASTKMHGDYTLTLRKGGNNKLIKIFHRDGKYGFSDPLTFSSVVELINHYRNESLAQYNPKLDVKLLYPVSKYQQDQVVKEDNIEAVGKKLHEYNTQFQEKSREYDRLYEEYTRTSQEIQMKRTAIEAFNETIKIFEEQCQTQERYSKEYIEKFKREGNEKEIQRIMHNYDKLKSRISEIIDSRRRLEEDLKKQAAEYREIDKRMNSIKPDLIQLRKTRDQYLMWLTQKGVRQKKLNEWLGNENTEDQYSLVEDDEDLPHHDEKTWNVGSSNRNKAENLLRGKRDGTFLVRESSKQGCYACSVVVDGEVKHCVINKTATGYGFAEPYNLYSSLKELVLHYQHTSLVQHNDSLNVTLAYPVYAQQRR

SMILES | IC50 (PI3Kα) | IC50 (mTOR) | AUC(0-inf) ([1]; intravenous, I.V, 2 mg/kg) | AUC(0-t) ([1]; intravenous, I.V, 2 mg/kg) | clearance ([1]; intravenous, I.V, 2 mg/kg) | half-life ([1]; intravenous, I.V, 2 mg/kg) | Vd ([1]; intravenous, I.V, 2 mg/kg) | further results
COc1ccc(-c2ccc3ncc4c(=O)[nH]c(=O)n(-c5cccc(C(F)(F)F)c5)c4c3n2)cn1 [Compound 2, 9-(6-methoxypyridin-3-yl)-1-(3-(trifluoromethyl)phenyl)pyrimido[5,4-c][1,5]naphthyridine-2,4(1H,3H)-dione] | 79 nM | 57 nM |  |  |  |  |  | 
Cn1c(=O)c2cnc3ccc(-c4ccc(N)nc4)nc3c2n(-c2cccc(C(F)(F)F)c2)c1=O [Compound 6] |  |  | 4470 ng·h/mL | 4450 ng·h/mL | 7.67 mL/min/kg | 3.15 h | 1.95 L/kg | IC50 (SKOV-3): 63.1 nM; IC50 (PC-3): 35.8 nM; bioavailability ([1]; oral, P.O 4 mg/kg vs I.V 2 mg/kg, read-out: F % (absolute bioavailability)): 115%; AUC(0-inf) ([1]; oral, P.O, 4 mg/kg): 10300 ng·h/mL; AUC(0-t) ([1]; oral, P.O, 4 mg/kg): 10200 ng·h/mL; Cmax ([1]; oral, P.O, 4 mg/kg): 1120 ng/mL; Tmax ([1]; oral, P.O, 4 mg/kg): 2 h; half-life ([1]; oral, P.O, 4 mg/kg): 3.92 h; IC50 (U87MG): 37.6 nM; IC50 (A549): 89.5 nM
COc1ncc(-c2ccc3ncc4c(=O)[nH]c(=O)n(-c5cccc(C(F)(F)F)c5)c4c3n2)cn1 [Compound 17, 9-(2-methoxypyrimidin-5-yl)-1-(3-(trifluoromethyl)phenyl)pyrimido[5,4-c][1,5]naphthyridine-2,4(1H,3H)-dione] | 40.7 nM | 39.3 nM |  |  |  |  |  | 
Nc1ncc(-c2ccc3ncc4c(=O)[nH]c(=O)n(-c5cccc(C(F)(F)F)c5)c4c3n2)cn1 [Compound 20, 9-(2-aminopyrimidin-5-yl)-1-(3-(trifluoromethyl)phenyl)pyrimido[5,4-c][1,5]naphthyridine-2,4(1H,3H)-dione] | 15.2 nM | 2.66 nM |  |  |  |  |  | 
O=c1[nH]c(=O)n(-c2cccc(C(F)(F)F)c2)c2c1cnc1ccc(-c3cnc4[nH]ccc4c3)nc12 [Compound 30 hydrochloride] |  |  | 1690 ng·h/mL | 1680 ng·h/mL | 19.7 mL/min/kg | 3.04 h | 2.49 L/kg | 
